Laboratory results from article PMC10794144, “A novel antibiotic class targeting the lipopolysaccharide transporter” (Nature, 2024).
In brackets after ≈: the same amount, converted by molar mass. Where two headings read alike, the source gives them in different places.

System: A. baumannii
Assay: microbe, parasite or virus in culture
Details: for MIC90 / MIC: Acinetobacter baumannii
Description: MIC determinations were performed using the broth microdilution method and in line with CLSI guidelines M07 and M100 (refs. [37],[38]). Bacterial inocula were prepared by diluting a 0.5 McFarland suspension in CAMHB or lysogeny broth (LB) specifically for A. baylyi isolates. […] MIC values of all of the tested antibiotics were read as the lowest compound concentration inhibiting bacterial growth by naked eye or beyond which the OD600 ceased to decrease.

`C[C@@H](O)[C@H]1C(=O)N2C(C(=O)O)=C(S[C@@H]3CN[C@H](C(=O)N(C)C)C3)[C@H](C)[C@H]12` [meropenem, reference compound] showed an MIC range (10 MDR isolates, CAMHB, MCPs read at 80% growth inhibition) of 1 to 64 µg/mL, an MIC90 of 64 µg/mL (≈ 167 µM) and an MIC90 (129 clinical isolates, CAMHB) of over 16 µg/mL. For the same compound, the MIC (ACC00445, CAMHB, MCPs read at 80% inhibition) was over 16 µg/mL, the MIC (ACC00535, CAMHB, MCPs read at 80% inhibition) was over 16 µg/mL and the MIC (ACC01073, CAMHB, MCPs read at 80% inhibition) was 16 µg/mL (≈ 41.7 µM). It also gave an MIC (ACC01077, CAMHB, MCPs read at 80% inhibition) of over 16 µg/mL, an MIC (ACC01085 / AR0307, CAMHB, MCPs read at 80% inhibition) of 8 µg/mL (≈ 20.9 µM) and an MIC (ATCC17978, ATCC 17978, CAMHB, MCPs read at 80% inhibition) of 0.25 µg/mL (≈ 0.652 µM). The MIC (ATCC17978, ATCC 17978, CAMHB, one replicate, MCPs read at 80% growth inhibition) was 0.5 µg/mL (≈ 1.3 µM), the MIC (ATCC17978, read-out: MIC 100%, ATCC 17978, Study LGC301026, 100%) was 0.25 µg/mL (≈ 0.652 µM) and the MIC (ATCC17978, read-out: MIC 100%, ATCC 17978, Study LGC308175, 100%) was 0.5 µg/mL (≈ 1.3 µM). The MIC (ATCC19606, ATCC 19606, CAMHB, MCPs read at 80% growth inhibition) was 1 µg/mL (≈ 2.61 µM), the MIC (ATCC19606, ATCC 19606, CAMHB, MCPs read at 80% inhibition) was 1 µg/mL (≈ 2.61 µM) and the MIC (ATCC19606, read-out: MIC 100%, ATCC 19606, Study LGC277937, 100%) was 1 µg/mL (≈ 2.61 µM). For the same compound, the MIC (ATCC19606, read-out: MIC 100%, ATCC 19606, Study LGC279800, 100%) was 1 µg/mL (≈ 2.61 µM), the MIC (ATCC19606, read-out: MIC 100%, ATCC 19606, Study LGC281440, 100%) was 1 µg/mL (≈ 2.61 µM) and the MIC (ATCC19606, read-out: MIC 100%, ATCC 19606, Study LGC282160, 100%) was 1 µg/mL (≈ 2.61 µM). It also gave an MIC (ATCC19606, read-out: MIC 100%, ATCC 19606, Study LGC282623, 100%) of 0.5 µg/mL (≈ 1.3 µM), an MIC (ATCC19606, read-out: MIC 100%, ATCC 19606, Study LGC283932, 100%) of 1 µg/mL (≈ 2.61 µM) and an MIC (ATCC19606, read-out: MIC 100%, ATCC 19606, Study LGC284200, 100%) of 1 µg/mL (≈ 2.61 µM). It also gave an MIC (ATCC19606, read-out: MIC 100%, ATCC 19606, Study LGC284879, 100%) of 4 µg/mL (≈ 10.4 µM), an MIC (ATCC19606, read-out: MIC 100%, ATCC 19606, Study LGC285582, 100%) of 4 µg/mL (≈ 10.4 µM) and an MIC (ATCC19606, read-out: MIC 100%, ATCC 19606, Study LGC286210, 100%) of 2 µg/mL (≈ 5.22 µM). It also gave an MIC (ATCC19606, read-out: MIC 100%, ATCC 19606, Study LGC293598, 100%) of 2 µg/mL (≈ 5.22 µM), an MIC (ATCC19606, read-out: MIC 100%, ATCC 19606, Study LGC294355, 100%) of 2 µg/mL (≈ 5.22 µM) and an MIC (ATCC19606, read-out: MIC 100%, ATCC 19606, Study LGC295147, 100%) of 2 µg/mL (≈ 5.22 µM). The MIC (ATCC19606, read-out: MIC 100%, ATCC 19606, Study LGC296813, 100%) was 2 µg/mL (≈ 5.22 µM), the MIC (ATCC19606, read-out: MIC 100%, ATCC 19606, Study LGC299544, 100%) was 4 µg/mL (≈ 10.4 µM) and the MIC (ATCC19606, read-out: MIC 100%, ATCC 19606, Study LGC301026, 100%) was 4 µg/mL (≈ 10.4 µM). For the same compound, the MIC (ATCC19606, read-out: MIC 100%, ATCC 19606, Study LGC308175, 100%) was 1 µg/mL (≈ 2.61 µM), the MIC (ATCC19606, read-out: MIC 100%, ATCC 19606, Study ROC003, 100%) was 1 µg/mL (≈ 2.61 µM) and the MIC (ATCC19606, read-out: MIC 100%, ATCC 19606, Study ROC004, 100%) was 1 µg/mL (≈ 2.61 µM). It also gave an MIC (ATCC19606, read-out: MIC 100%, ATCC 19606, Study ROC005, 100%) of 1 µg/mL (≈ 2.61 µM), an MIC (ATCC19606, read-out: MIC 100%, ATCC 19606, Study ROC006, 100%) of 1 µg/mL (≈ 2.61 µM) and an MIC (ATCC19606, read-out: MIC 100%, ATCC 19606, Study ROC007, 100%) of 2 µg/mL (≈ 5.22 µM). The MIC (ATCC19606, read-out: MIC 100%, ATCC 19606, Study ROC008, 100%) was 1 µg/mL (≈ 2.61 µM), the MIC (ATCC19606, read-out: MIC 100%, ATCC 19606, Study ROC009, 100%) was 2 µg/mL (≈ 5.22 µM) and the MIC (ATCC19606, read-out: MIC 100%, ATCC 19606, Study ROC010, 100%) was 2 µg/mL (≈ 5.22 µM). It also gave an MIC (ATCC19606, read-out: MIC 100%, ATCC 19606, Study ROC012, 100%) of 0.5 µg/mL (≈ 1.3 µM), an MIC (ATCC19606, read-out: MIC 100%, ATCC 19606, Study ROC013, 100%) of 4 µg/mL (≈ 10.4 µM) and an MIC (ATCCBAA747, ATCC BAA-747, CAMHB, MCPs read at 80% inhibition) of 0.12 µg/mL (≈ 0.313 µM). For the same compound, the MIC (ROB08701, CAMHB, MCPs read at 80% inhibition) was 1 µg/mL (≈ 2.61 µM), the MIC (ROB08702, CAMHB, MCPs read at 80% inhibition) was over 16 µg/mL and the MIC (ROB08703, CAMHB, MCPs read at 80% inhibition) was over 16 µg/mL. The MIC (ROB08704, CAMHB, MCPs read at 80% inhibition) was over 16 µg/mL, the MIC (ROB08705, CAMHB, MCPs read at 80% inhibition) was over 16 µg/mL and the MIC (ROB08706, CAMHB, MCPs read at 80% inhibition) was over 16 µg/mL. The MIC (ROB08707, CAMHB, MCPs read at 80% inhibition) was over 16 µg/mL, the MIC (ROB08708, CAMHB, MCPs read at 80% inhibition) was 16 µg/mL (≈ 41.7 µM) and the MIC (ROB08709, CAMHB, MCPs read at 80% inhibition) was over 16 µg/mL. For the same compound, the MIC (ROB08710, CAMHB, MCPs read at 80% inhibition) was over 16 µg/mL, the MIC (read-out: MIC 100%, ROB08701, Study LGC277937, 100%) was 1 µg/mL (≈ 2.61 µM) and the MIC (read-out: MIC 100%, ROB08701, Study LGC279800, 100%) was 1 µg/mL (≈ 2.61 µM). It also gave an MIC (read-out: MIC 100%, ROB08701, Study LGC281440, 100%) of 1 µg/mL (≈ 2.61 µM), an MIC (read-out: MIC 100%, ROB08701, Study LGC282160, 100%) of 1 µg/mL (≈ 2.61 µM) and an MIC (read-out: MIC 100%, ROB08701, Study LGC282623, 100%) of 1 µg/mL (≈ 2.61 µM). The MIC (read-out: MIC 100%, ROB08701, Study LGC283932, 100%) was 1 µg/mL (≈ 2.61 µM), the MIC (read-out: MIC 100%, ROB08701, Study LGC284200, 100%) was 32 µg/mL (≈ 83.4 µM) and the MIC (read-out: MIC 100%, ROB08701, Study LGC284879, 100%) was 1 µg/mL (≈ 2.61 µM). The MIC (read-out: MIC 100%, ROB08701, Study LGC285582, 100%) was 1 µg/mL (≈ 2.61 µM), the MIC (read-out: MIC 100%, ROB08701, Study LGC286210, 100%) was 1 µg/mL (≈ 2.61 µM) and the MIC (read-out: MIC 100%, ROB08701, Study LGC293598, 100%) was 2 µg/mL (≈ 5.22 µM). For the same compound, the MIC (read-out: MIC 100%, ROB08701, Study LGC294355, 100%) was 1 µg/mL (≈ 2.61 µM), the MIC (read-out: MIC 100%, ROB08701, Study LGC295147, 100%) was 1 µg/mL (≈ 2.61 µM) and the MIC (read-out: MIC 100%, ROB08701, Study LGC296813, 100%) was 2 µg/mL (≈ 5.22 µM). For the same compound, the MIC (read-out: MIC 100%, ROB08701, Study LGC299544, 100%) was 1 µg/mL (≈ 2.61 µM), the MIC (read-out: MIC 100%, ROB08701, Study LGC301026, 100%) was 1 µg/mL (≈ 2.61 µM) and the MIC (read-out: MIC 100%, ROB08701, Study LGC308175, 100%) was 1 µg/mL (≈ 2.61 µM). The MIC (read-out: MIC 100%, ROB08701, Study ROC003, 100%) was 1 µg/mL (≈ 2.61 µM), the MIC (read-out: MIC 100%, ROB08701, Study ROC004, 100%) was 1 µg/mL (≈ 2.61 µM) and the MIC (read-out: MIC 100%, ROB08701, Study ROC005, 100%) was 1 µg/mL (≈ 2.61 µM). For the same compound, the MIC (read-out: MIC 100%, ROB08701, Study ROC006, 100%) was 1 µg/mL (≈ 2.61 µM), the MIC (read-out: MIC 100%, ROB08701, Study ROC007, 100%) was 1 µg/mL (≈ 2.61 µM) and the MIC (read-out: MIC 100%, ROB08701, Study ROC008, 100%) was 1 µg/mL (≈ 2.61 µM). For the same compound, the MIC (read-out: MIC 100%, ROB08701, Study ROC009, 100%) was 1 µg/mL (≈ 2.61 µM), the MIC (read-out: MIC 100%, ROB08701, Study ROC010, 100%) was 1 µg/mL (≈ 2.61 µM) and the MIC (read-out: MIC 100%, ROB08701, Study ROC012, 100%) was 0.5 µg/mL (≈ 1.3 µM). The MIC (read-out: MIC 100%, ROB08701, Study ROC013, 100%) was 1 µg/mL (≈ 2.61 µM), the MIC (read-out: MIC 100%, ROB08702, Study LGC277937, 100%) was 32 µg/mL (≈ 83.4 µM) and the MIC (read-out: MIC 100%, ROB08702, Study LGC279800, 100%) was 32 µg/mL (≈ 83.4 µM). The MIC (read-out: MIC 100%, ROB08702, Study LGC281440, 100%) was 16 µg/mL (≈ 41.7 µM), the MIC (read-out: MIC 100%, ROB08702, Study LGC282160, 100%) was 64 µg/mL (≈ 167 µM) and the MIC (read-out: MIC 100%, ROB08702, Study LGC282623, 100%) was 32 µg/mL (≈ 83.4 µM). It also gave an MIC (read-out: MIC 100%, ROB08702, Study LGC283932, 100%) of 32 µg/mL (≈ 83.4 µM) and an MIC (read-out: MIC 100%, ROB08702, Study LGC284200, 100%) of 32 µg/mL (≈ 83.4 µM).
